From PMC10800023 (Human Molecular Genetics, 2023)

Tests used:
IL-1β = assay: LPS-induced IL-1β in cultured BMDM; type: cell-based; conditions: Mus musculus, corticosteroid overnight, LPS 10 ng/ml 3 h
Text: (§1) The immunosuppressive activity of corticosteroids is in part due to their inhibition of NF-κB-induced cytokines including TNF-α, IL-6, and IL-12. Furthermore, expression of some inflammatory-mediated proteins such as STAT1 is mediated via GREs, and not the NF-κB pathway. We therefore expanded murine bone marrow-derived macrophages (BMDM) in vitro, and after 5 days of culture tested the relative efficacy of different corticosteroids to prevent LPS-induced cytokine secretion.
(§2) BMDM mouse bone marrow derived macrophage (mBMDM) cultures were generated from the femur and tibia from two 7–11-week-old C57BL/6 mice. Briefly, bone marrow cells were carefully flushed out, suspended in ice-cold PBS, and spun down. After the supernatant was removed, the pelleted cells were resuspended in 2 ml (ammonium-Chloride-Potassium) ACK lysis buffer (Thermo Fisher, Cat# A1049201) and incubated for 3–4 min, followed by 14 ml ice-cold PBS, and then spun down. The pelleted cells were resuspended in 43 ml complete media [Roswell Park Memorial Institute (RPMI 1640), Gibco, Cat# 11875-093; 10% heat-inactivated fetal bovine serum (HiFBS), HyClone, Cat# SH30406.02; 1% 2 mM L-glutamine; 1% penicillin-streptomycin, Sigma, Cat# P4333-100ML; 1% MEM NEAA, Gibco, Cat# 11140-050; 1% Na Pyruvate, Gibco, Cat# 11360-070; 55 μM 2-Mercaptoethanol, Gibco, Cat#21985-023]. A total of 25 ng/ml M-CSF was added to the culture. Cells were dispensed as 200 μl per well into a 96-well tissue culture plate and incubated at 37°C, 5% CO2 for 4 days. On Day 5, media were removed and 100 μl fresh complete media containing M-CSF were added. Corticosteroids were added and cells incubated at 37°C and 5% CO2 overnight. Untreated cells were incubated with media. On Day 6, 10 ng/ml of lipopolysaccharide (LPS) was added and incubated at 37°C and 5% CO2 for 3 h followed by removal of cell media for cytokine analysis. Cytokines were measured using a Meso Scale Discovery (MSD), V-PLEX kit (V-PLEX Cat# K-15048D, www.mesoscale.com).

[1] = MDCK control cell permeability (not transfected with human P-gp); conditions: dog, pH 7.4
Experimental: (§3) To measure transport by P-gp, Madin-Darby canine kidney (MDCK) cells that had been transfected with the human P-gp (MDR1) gene were plated in a Transwell plate and cultured until polarized. MDCK cells that are not transfected with human P-gp were used as a control. Compounds were added to either the apical or the basolateral side of the cells, and transport across the membrane was measured.
(§4) Testing for permeability and MDR1 substrate assessment was done in MDCK cells transfected to overexpress human MDR1 gene that encodes efflux transporter protein (P-gp). […] Briefly, cells were maintained in Dulbecco’s modified Eagle medium (DMEM) with 10% fetal bovine serum and 1% penicillin/streptomycin in a humidified incubator at 37°C with 5% CO2. The study was performed by Absorption Systems (now Pharmaron; Exton, PA). The MDR1-MDCK and MDCK control cell lines were seeded into 12-well plates for 7 days. Integrity of monolayer tight junctions was monitored preincubation by transepithelial electrical resistance (TEER) measurement. […] The samples were withdrawn at t = 0 and 60 min from the receiver and donor compartments. Compound levels were measured by LC/MS–MS. Additionally, post-assay, cell monolayer integrity was checked with Lucifer Yellow permeability measurement. Transport assay low- and high-permeability control compounds were run in parallel for assay validation. Papp values were calculated considering compound concentrations across the monolayer and cell surface area. Efflux ratios were calculated based on Papp B > A over Papp A > B. The difference between the MDR1-MDCK and the MDCK cell efflux ratios was also calculated. […] Compounds were classified by Absorption Systems/Pharmaron as follows: […]

IFN-γ = assay: LPS-induced IFN-γ in cultured BMDM; type: cell-based; conditions: Mus musculus, corticosteroid overnight, LPS 10 ng/ml 3 h
Text: as §1, §2

B10-mdx mice [2] = assay: Tail-suspension test 24 h after force-swim test (Study 2); type: in vivo, mouse; conditions: daily dosing 4 weeks, doses tested (deflazacort 1.25-15 mg/kg; vamorolone all doses 15, 30, 45 mg/kg), vs vehicle B10-mdx
Experimental: Corticosteroid-treated mice were subjected to the force-swim test (FST) followed by the tail-suspension test (TST) 24 h later. During the TST, normal mice will struggle and constantly move. However, mice show depression-like behavior by quickly giving up, stop moving, and remaining still for a greater percentage of the time.
Study 2: The goal of the second study was to evaluate corticosteroid side effects and efficacy in a longer study (4 months). After 28 days of dosing, mice were tested for depression-like behavior using a measure of corticosteroid-induced depression (FST followed by TST). Muscle function was tested via grip strength. Tests for depression and for grip-strength were done in a blinded manner. After 4 months, mice were euthanized, and tissues were collected. Bone from whole left leg was collected for micro-CT analysis. The number of animals per group was as follows: WT, n = 16; B10-mdx, n = 15; corticosteroid-treated groups, n = 8–10.
• 1) Force-swim test: Animals were single housed and acclimated in the behavior room for 30 min prior to test. A clean 1-L beaker was filled with 700 to 800 ml of 23°C water. Each mouse was placed into the water for 6 min. The total immobility time was recorded. After the test, the animals were dried and placed in a cage on a heating pad for about 10 min before returning to the home cages. • 2) Tail-suspension test: Isolated mice were suspended 50 cm above the floor by surgical tape placed approximately 1 cm from the tip of the tail for 6 min. The total immobility time of mice was measured. Mice were considered immobile only when they hung passively and completely motionless.

human P-gp (MDR1) = assay: MDR1-MDCK permeability / P-gp efflux assay; conditions: for Differences between ratios: MDR1-MDCK minus MDCK efflux ratio; for brain penetration classification: 1 and 10 μM, from Papp (A-to-B) and efflux ratio
Experimental: as §3, §4

P-gp (MDR1) = assay: MDR1-MDCK permeability / P-gp efflux assay; conditions: MDCK-MDR1, pH 7.4
Experimental: as §3, §4

IL-12 = assay: LPS-induced IL-12 in cultured BMDM; type: cell-based; conditions: Mus musculus, corticosteroid overnight, LPS 10 ng/ml 3 h
Text: as §1, §2

B10-mdx mice [3] = assay: RNA-sequencing of tissues after 2 weeks of treatment (Study 1); conditions: vs vehicle-treated B10-mdx
Text: To evaluate short-term changes, after 2 weeks of treatment, the mice were euthanized, and brain, muscle, and liver tissue collected for RNA-sequencing (RNA-seq) analysis to evaluate the number of changes in gene expression in the muscle, liver, and brain.
Brain, muscle, and liver were collected for RNAseq. The number of animals per group was as follows: WT, n = 15; B10-mdx, n = 11; corticosteroid-treated groups, n = 10–12.

In the case of `C[C@@H]1C[C@H]2[C@@H]3CCC4=CC(=O)C=C[C@]4(C)C3=CC[C@]2(C)[C@@]1(O)C(=O)CO` [Vamorolone], the EC50 (IL-1β) is reported as 32 nM, the Papp A→B at 60 min, 10 μM [1] is reported as 33.4 ×10⁻⁶ cm/s and the Papp B→A at 60 min, 1 μM [1] is reported as 25.2 ×10⁻⁶ cm/s. It also gave a Papp B→A at 60 min, 10 μM [1] of 22.7 ×10⁻⁶ cm/s, an efflux ratio at 60 min, 1 μM [1] of 0.755 and an efflux ratio at 60 min, 10 μM [1] of 0.746. The EC50 (IFN-γ) was 0.8 nM, the “immobilization time in tail suspension test” value (B10-mdx mice [2]) was “increased the immobilization time significantly” and the Differences between ratios (human P-gp (MDR1); 1 μM) was 6. The “Apical to Basolateral MDR1-MDCK” value (human P-gp (MDR1); 10 μM) was 8.73 10 ^ −6 cm/s, the Differences between ratios (human P-gp (MDR1); 10 μM) was 6 and the brain penetration classification (human P-gp (MDR1)) was “moderate”. The Papp A→B at 60 min, 1 μM (human P-gp (MDR1); dog, MDCK-MDR1, pH 7.4) was 7.99 ×10⁻⁶ cm/s, the Papp B→A at 60 min, 1 μM (human P-gp (MDR1); dog, MDCK-MDR1, pH 7.4) was 54.7 ×10⁻⁶ cm/s and the Papp B→A at 60 min, 10 μM (human P-gp (MDR1); dog, MDCK-MDR1, pH 7.4) was 56.1 ×10⁻⁶ cm/s. The Papp at 60 min (P-gp (MDR1)) was over 3 ×10⁻⁶ cm/s, the efflux ratio at 60 min, 1 μM (P-gp (MDR1)) was 6.84 and the efflux ratio at 60 min, 10 μM (P-gp (MDR1)) was 6.42. The EC50 (IL-12) was 30 nM, the “Number of genes, Quadriceps, Down-regulated” value (B10-mdx mice [3]; 15 mg/kg daily) was 3014 and the “Number of genes, Quadriceps, No Change” value (B10-mdx mice [3]; 15 mg/kg daily) was 9369. The “Number of genes, Quadriceps, Up-regulated” value (B10-mdx mice [3]; 15 mg/kg daily) was 3927, the “Number of genes, Whole Brain, Down-regulated” value (B10-mdx mice [3]; 15 mg/kg daily) was 138 and the “Number of genes, Whole Brain, No Change” value (B10-mdx mice [3]; 15 mg/kg daily) was 16068. The “Number of genes, Whole Brain, Up-regulated” value (B10-mdx mice [3]; 15 mg/kg daily) was 104, the “Number of genes, Quadriceps, Down-regulated” value (B10-mdx mice [3]; 30 mg/kg daily) was 3138 and the “Number of genes, Quadriceps, No Change” value (B10-mdx mice [3]; 30 mg/kg daily) was 10053. The “Number of genes, Quadriceps, Up-regulated” value (B10-mdx mice [3]; 30 mg/kg daily) was 3119, the “Number of genes, Whole Brain, Down-regulated” value (B10-mdx mice [3]; 30 mg/kg daily) was 2087 and the “Number of genes, Whole Brain, No Change” value (B10-mdx mice [3]; 30 mg/kg daily) was 11760. The “Number of genes, Whole Brain, Up-regulated” value (B10-mdx mice [3]; 30 mg/kg daily) was 2463, the “Number of genes, Quadriceps, Down-regulated” value (B10-mdx mice [3]; 45 mg/kg daily) was 331 and the “Number of genes, Quadriceps, No Change” value (B10-mdx mice [3]; 45 mg/kg daily) was 15364. The “Number of genes, Quadriceps, Up-regulated” value (B10-mdx mice [3]; 45 mg/kg daily) was 615, the “Number of genes, Whole Brain, Down-regulated” value (B10-mdx mice [3]; 45 mg/kg daily) was 1114 and the “Number of genes, Whole Brain, No Change” value (B10-mdx mice [3]; 45 mg/kg daily) was 14218. The “Number of genes, Whole Brain, Up-regulated” value (B10-mdx mice [3]; 45 mg/kg daily) was 978.

With `CC(=O)OCC(=O)[C@@]12N=C(C)O[C@@H]1C[C@H]1[C@@H]3CCC4=CC(=O)C=C[C@]4(C)[C@H]3[C@@H](O)C[C@@]12C` [Deflazacort] the EC50 (IL-1β) was 1.3 nM, the Papp A→B at 60 min, 1 μM [1] was 12.3 ×10⁻⁶ cm/s and the Papp A→B at 60 min, 10 μM [1] was 6.66 ×10⁻⁶ cm/s. The Papp B→A at 60 min, 1 μM [1] was 11.6 ×10⁻⁶ cm/s, the Papp B→A at 60 min, 10 μM [1] was 6.7 ×10⁻⁶ cm/s and the efflux ratio at 60 min, 1 μM [1] was 0.949. The efflux ratio at 60 min, 10 μM [1] was 1.01, the EC50 (IFN-γ) was 0.29 nM and the “immobilization time in tail suspension test” value (B10-mdx mice [2]) was “did not increase”. For the same compound, the “Basolateral to Apical MDR1-MDCK” value (human P-gp (MDR1); 1 μM) was 62.60 10 ^ −6 cm/s, the Differences between ratios (human P-gp (MDR1); 1 μM) was 59 and the “Apical to Basolateral MDR1-MDCK” value (human P-gp (MDR1); 10 μM) was 1.07 10 ^ −6 cm/s. For the same compound, the Differences between ratios (human P-gp (MDR1); 10 μM) was 57, the brain penetration classification (human P-gp (MDR1)) was “low” and the Papp A→B at 60 min, 1 μM (human P-gp (MDR1); dog, MDCK-MDR1, pH 7.4) was 1.04 ×10⁻⁶ cm/s. The Papp B→A at 60 min, 10 μM (human P-gp (MDR1); dog, MDCK-MDR1, pH 7.4) was 62.6 ×10⁻⁶ cm/s, the Papp at 60 min (P-gp (MDR1)) was under 3 ×10⁻⁶ cm/s and the efflux ratio at 60 min, 1 μM (P-gp (MDR1)) was 60.2. For the same compound, the efflux ratio at 60 min, 10 μM (P-gp (MDR1)) was 58.4, the EC50 (IL-12) was 3.6 nM and the “Number of genes, Quadriceps, Down-regulated” value (B10-mdx mice [3]; 1.25 mg/kg daily) was 4245. The “Number of genes, Quadriceps, No Change” value (B10-mdx mice [3]; 1.25 mg/kg daily) was 7767, the “Number of genes, Quadriceps, Up-regulated” value (B10-mdx mice [3]; 1.25 mg/kg daily) was 4298 and the “Number of genes, Whole Brain, Down-regulated” value (B10-mdx mice [3]; 1.25 mg/kg daily) was 31. The “Number of genes, Whole Brain, Up-regulated” value (B10-mdx mice [3]; 1.25 mg/kg daily) was 1, the “Number of genes, Quadriceps, Down-regulated” value (B10-mdx mice [3]; 2.5 mg/kg daily) was 3706 and the “Number of genes, Quadriceps, No Change” value (B10-mdx mice [3]; 2.5 mg/kg daily) was 9024. The “Number of genes, Quadriceps, Up-regulated” value (B10-mdx mice [3]; 2.5 mg/kg daily) was 3580, the “Number of genes, Whole Brain, Down-regulated” value (B10-mdx mice [3]; 2.5 mg/kg daily) was 4 and the “Number of genes, Whole Brain, No Change” value (B10-mdx mice [3]; 2.5 mg/kg daily) was 16306. The “Number of genes, Whole Brain, Up-regulated” value (B10-mdx mice [3]; 2.5 mg/kg daily) was 0, the “Number of genes, Quadriceps, Down-regulated” value (B10-mdx mice [3]; 5 mg/kg daily) was 5354 and the “Number of genes, Quadriceps, No Change” value (B10-mdx mice [3]; 5 mg/kg daily) was 4889. For the same compound, the “Number of genes, Quadriceps, Up-regulated” value (B10-mdx mice [3]; 5 mg/kg daily) was 6067, the “Number of genes, Whole Brain, Down-regulated” value (B10-mdx mice [3]; 5 mg/kg daily) was 39 and the “Number of genes, Whole Brain, No Change” value (B10-mdx mice [3]; 5 mg/kg daily) was 16214. The “Number of genes, Whole Brain, Up-regulated” value (B10-mdx mice [3]; 5 mg/kg daily) was 57, the “Number of genes, Quadriceps, Down-regulated” value (B10-mdx mice [3]; 15 mg/kg daily) was 5462 and the “Number of genes, Quadriceps, No Change” value (B10-mdx mice [3]; 15 mg/kg daily) was 5024. For the same compound, the “Number of genes, Quadriceps, Up-regulated” value (B10-mdx mice [3]; 15 mg/kg daily) was 5824, the “Number of genes, Whole Brain, Down-regulated” value (B10-mdx mice [3]; 15 mg/kg daily) was 231 and the “Number of genes, Whole Brain, No Change” value (B10-mdx mice [3]; 15 mg/kg daily) was 15981. The “Number of genes, Whole Brain, Up-regulated” value (B10-mdx mice [3]; 15 mg/kg daily) was 98.
